Tests used:
[1] = mouse, in vivo, po, 10 mg/kg, 24 h
[2] = in vivo; conditions: Swiss outbred, mouse, iv, 3 mg/kg
[3] = in vivo; conditions: Swiss outbred, mouse, iv, 3 mg/kg; remark: listed apart in the source
[4] = in vivo; conditions: Swiss outbred, mouse, iv, 3 mg/kg; remark: listed apart in the source
[5] = in vivo; conditions: Swiss outbred, mouse, po, 10 mg/kg
[6] = physchem; conditions: buffer, pH 7.4

With `C=CCn1c(=O)c2cnc(Nc3ccc(N4CCN(C)CC4)cc3)nc2n1-c1cccc(C(C)(C)O)n1` [ADAVOSERTIB] the AUC [1] was 0.067 µM·h, the AUC(0-t) at 24 h [2] was 0.21 µM·h and the clearance at 24 h [3] was 75 mL/min/kg. The Vd at 24 h [4] was 1.27 L/kg, the Cmax at 24 h [5] was 26 nM and the chromatographic logD [6] was 3.4.

Source: ChEMBL document CHEMBL6134862, “Discovery of WEE1 Kinase Inhibitors with Potent Activity against Patient-Derived, Metastatic Colorectal Cancer Organoids” (J Med Chem, 2025)
